Patent US9738634B2, “Heterocyclic amide compound and herbicide” (SYNGENTA PARTICIPATIONS AG, priority 2013, dated 2017)

What was measured:
Format in all cases: in vivo
Conditions in all cases: treatment dosage 320 g/ha
bulrush [1] = assay: Test Example 2: weedkilling efficacy, growth period weed treatment in the submerged state; B: bulrush
Procedure, shortened: (§1)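 First, alluvial soil in pots is flooded to 4 cm and mixed seed is sown. Next, plants grow in a greenhouse at 25 to 30° C until the 1-2 leaf stage. Then diluted emulsion is applied onto the water surface at the given g/ha rate, and injury is assessed after 3 weeks.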

transplanted rice = assay: Test Example 1: preemergent weed treatment in the submerged state, effect on crop; a: transplanted rice
Procedure, shortened: (§2)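 Emulsion diluted with water to the specified per-hectare dosage is applied onto flood water (4 cm) over alluvial soil on the sowing day, with barnyard grass, bulrush and pondweed seeded and rice (2.5-leaf) transplanted; plants grow at 25–30 °C and are rated at 3 weeks.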

directly sown rice [2] = assay: Test Example 4: foliar treatment, effect on crop; b: directly sown rice
Procedure, shortened: (§3)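 Seeds are spot-sown into sterilized diluvial soil and covered with about 1.5 cm of soil. After 14 days' greenhouse growth at 25 to 30° C, plants are sprayed on stems and leaves with diluted emulsion at the stated g/ha rate, then scored at 3 weeks.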

wild oat [3] = assay: Test Example 3: weedkilling efficacy through soil treatment; G: wild oat
Procedure, shortened: (§4)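 Crop and weed responses were judged three weeks after a uniform surface spray of the water-diluted emulsion at the given g/ha rate. Seeds sat beneath about 1.5 cm of sterilized diluvial soil, and boxes stood in a greenhouse at 25 to 30° C.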

green foxtail [4] = assay: Test Example 4: weedkilling efficacy by foliar treatment; E: green foxtail
Procedure, shortened: as §3

beet [5] = assay: Test Example 3: soil treatment, effect on crop; f: beet
Procedure, shortened: as §4

bulrush [6] = assay: Test Example 1: weedkilling efficacy, preemergent weed treatment in the submerged state; B: bulrush
Procedure, shortened: as §2

wheat [7] = assay: Test Example 3: soil treatment, effect on crop; e: wheat
Procedure, shortened: as §4

rapeseed [8] = assay: Test Example 4: foliar treatment, effect on crop; g: rapeseed
Procedure, shortened: as §3

corn [9] = assay: Test Example 4: foliar treatment, effect on crop; c: corn
Procedure, shortened: as §3

birds-eye speedwell [10] = assay: Test Example 4: weedkilling efficacy by foliar treatment; p: birds-eye speedwell
Procedure, shortened: as §3

Italian ryegrass [11] = assay: Test Example 3: weedkilling efficacy through soil treatment; I: Italian ryegrass
Procedure, shortened: as §4

birds-eye speedwell [12] = assay: Test Example 3: weedkilling efficacy through soil treatment; p: birds-eye speedwell
Procedure, shortened: as §4

corn [13] = assay: Test Example 3: soil treatment, effect on crop; c: corn
Procedure, shortened: as §4

fig-leafed goosefoot = assay: Test Example 3: weedkilling efficacy through soil treatment; M: fig-leafed goosefoot
Procedure, shortened: as §4

black-grass [14] = assay: Test Example 4: weedkilling efficacy by foliar treatment; H: black-grass
Procedure, shortened: as §3

soybean [15] = assay: Test Example 4: foliar treatment, effect on crop; d: soybean
Procedure, shortened: as §3

catchweed [16] = assay: Test Example 3: weedkilling efficacy through soil treatment; O: catchweed
Procedure, shortened: as §4

oval-leafed pondweed [17] = assay: Test Example 1: weedkilling efficacy, preemergent weed treatment in the submerged state; C: oval-leafed pondweed
Procedure, shortened: as §2

wild oat [18] = assay: Test Example 4: weedkilling efficacy by foliar treatment; G: wild oat
Procedure, shortened: as §3

chickweed [19] = assay: Test Example 3: weedkilling efficacy through soil treatment; N: chickweed
Procedure, shortened: as §4

catchweed [20] = assay: Test Example 4: weedkilling efficacy by foliar treatment; O: catchweed
Procedure, shortened: as §3

barnyard grass [21] = assay: Test Example 2: weedkilling efficacy, growth period weed treatment in the submerged state; A: barnyard grass
Procedure, shortened: as §1

soybean [22] = assay: Test Example 3: soil treatment, effect on crop; d: soybean
Procedure, shortened: as §4

beet [23] = assay: Test Example 4: foliar treatment, effect on crop; f: beet
Procedure, shortened: as §3

crabgrass [24] = assay: Test Example 4: weedkilling efficacy by foliar treatment; D: crabgrass
Procedure, shortened: as §3

common wind-grass [25] = assay: Test Example 4: weedkilling efficacy by foliar treatment; J: common wind-grass
Procedure, shortened: as §3

Indian mallow [26] = assay: Test Example 4: weedkilling efficacy by foliar treatment; K: Indian mallow
Procedure, shortened: as §3

crabgrass [27] = assay: Test Example 3: weedkilling efficacy through soil treatment; D: crabgrass
Procedure, shortened: as §4

Italian ryegrass [28] = assay: Test Example 4: weedkilling efficacy by foliar treatment; I: Italian ryegrass
Procedure, shortened: as §3

common wind-grass [29] = assay: Test Example 3: weedkilling efficacy through soil treatment; J: common wind-grass
Procedure, shortened: as §4

rapeseed [30] = assay: Test Example 3: soil treatment, effect on crop; g: rapeseed
Procedure, shortened: as §4

Indian mallow [31] = assay: Test Example 3: weedkilling efficacy through soil treatment; K: Indian mallow
Procedure, shortened: as §4

oval-leafed pondweed [32] = assay: Test Example 2: weedkilling efficacy, growth period weed treatment in the submerged state; C: oval-leafed pondweed
Procedure, shortened: as §1

black-grass [33] = assay: Test Example 3: weedkilling efficacy through soil treatment; H: black-grass
Procedure, shortened: as §4

green foxtail [34] = assay: Test Example 3: weedkilling efficacy through soil treatment; E: green foxtail
Procedure, shortened: as §4

redroot pigweed [35] = assay: Test Example 3: weedkilling efficacy through soil treatment; L: redroot pigweed
Procedure, shortened: as §4

barnyard grass [36] = assay: Test Example 3: weedkilling efficacy through soil treatment; F: barnyard grass
Procedure, shortened: as §4

chickweed [37] = assay: Test Example 4: weedkilling efficacy by foliar treatment; N: chickweed
Procedure, shortened: as §3

wheat [38] = assay: Test Example 4: foliar treatment, effect on crop; e: wheat
Procedure, shortened: as §3

redroot pigweed [39] = assay: Test Example 4: weedkilling efficacy by foliar treatment; L: redroot pigweed
Procedure, shortened: as §3

directly sown rice [40] = assay: Test Example 3: soil treatment, effect on crop; b: directly sown rice
Procedure, shortened: as §4

barnyard grass [41] = assay: Test Example 4: weedkilling efficacy by foliar treatment; F: barnyard grass
Procedure, shortened: as §3

barnyard grass [42] = assay: Test Example 1: weedkilling efficacy, preemergent weed treatment in the submerged state; A: barnyard grass
Procedure, shortened: as §2

In the case of `COc1cc(Cl)nc(NC(=O)C(C)(C)N2COC(C)=C(c3ccccc3)C2=O)c1` [B-2-47], the “B (bulrush) weedkilling efficacy grade” value (bulrush [1]) is reported as 5 (weed kill ratio 90% or more, (practically complete withering)), the “a (transplanted rice) effect on crop grade” value (transplanted rice) is reported as 1 (weed kill ratio 5% or more, less than 20%) and the “b (directly sown rice) effect on crop grade” value (directly sown rice [2]) is reported as 0 (weed kill ratio 5% or less (practically no effect)). The “G (wild oat) weedkilling efficacy grade” value (wild oat [3]) was 2 (weed kill ratio 20% or more, less than 40%), the “E (green foxtail) weedkilling efficacy grade” value (green foxtail [4]) was 4 (weed kill ratio 70% or more, less than 90%) and the “f (beet) effect on crop grade” value (beet [5]) was 2 (weed kill ratio 20% or more, less than 40%). The “B (bulrush) weedkilling efficacy grade” value (bulrush [6]) was 5 (weed kill ratio 90% or more, (practically complete withering)), the “e (wheat) effect on crop grade” value (wheat [7]) was 0 (weed kill ratio 5% or less (practically no effect)) and the “g (rapeseed) effect on crop grade” value (rapeseed [8]) was 3 (weed kill ratio 40% or more, less than 70%). The “c (corn) effect on crop grade” value (corn [9]) was 0 (weed kill ratio 5% or less (practically no effect)), the “P (birds-eye speedwell) weedkilling efficacy grade” value (birds-eye speedwell [10]) was 4 (weed kill ratio 70% or more, less than 90%) and the “I (Italian ryegrass) weedkilling efficacy grade” value (Italian ryegrass [11]) was 5 (weed kill ratio 90% or more, (practically complete withering)). The “P (birds-eye speedwell) weedkilling efficacy grade” value (birds-eye speedwell [12]) was 5 (weed kill ratio 90% or more, (practically complete withering)), the “c (corn) effect on crop grade” value (corn [13]) was 0 (weed kill ratio 5% or less (practically no effect)) and the “M (fig-leafed goosefoot) weedkilling efficacy grade” value (fig-leafed goosefoot) was 2 (weed kill ratio 20% or more, less than 40%). The “H (black-grass) weedkilling efficacy grade” value (black-grass [14]) was 2 (weed kill ratio 20% or more, less than 40%), the “d (soybean) effect on crop grade” value (soybean [15]) was 0 (weed kill ratio 5% or less (practically no effect)) and the “O (catchweed) weedkilling efficacy grade” value (catchweed [16]) was 4 (weed kill ratio 70% or more, less than 90%). The “C (oval-leafed pondweed) weedkilling efficacy grade” value (oval-leafed pondweed [17]) was 5 (weed kill ratio 90% or more, (practically complete withering)), the “G (wild oat) weedkilling efficacy grade” value (wild oat [18]) was 2 (weed kill ratio 20% or more, less than 40%) and the “N (chickweed) weedkilling efficacy grade” value (chickweed [19]) was 3 (weed kill ratio 40% or more, less than 70%). For the same compound, the “O (catchweed) weedkilling efficacy grade” value (catchweed [20]) was 3 (weed kill ratio 40% or more, less than 70%), the “A (barnyard grass) weedkilling efficacy grade” value (barnyard grass [21]) was 5 (weed kill ratio 90% or more, (practically complete withering)) and the “d (soybean) effect on crop grade” value (soybean [22]) was 0 (weed kill ratio 5% or less (practically no effect)). For the same compound, the “f (beet) effect on crop grade” value (beet [23]) was 3 (weed kill ratio 40% or more, less than 70%), the “D (crabgrass) weedkilling efficacy grade” value (crabgrass [24]) was 3 (weed kill ratio 40% or more, less than 70%) and the “J (common wind-grass) weedkilling efficacy grade” value (common wind-grass [25]) was 4 (weed kill ratio 70% or more, less than 90%). The “K (Indian mallow) weedkilling efficacy grade” value (Indian mallow [26]) was 0 (weed kill ratio 5% or less (practically no effect)), the “D (crabgrass) weedkilling efficacy grade” value (crabgrass [27]) was 4 (weed kill ratio 70% or more, less than 90%) and the “I (Italian ryegrass) weedkilling efficacy grade” value (Italian ryegrass [28]) was 2 (weed kill ratio 20% or more, less than 40%). The “J (common wind-grass) weedkilling efficacy grade” value (common wind-grass [29]) was 5 (weed kill ratio 90% or more, (practically complete withering)), the “g (rapeseed) effect on crop grade” value (rapeseed [30]) was 3 (weed kill ratio 40% or more, less than 70%) and the “K (Indian mallow) weedkilling efficacy grade” value (Indian mallow [31]) was 0 (weed kill ratio 5% or less (practically no effect)). The “C (oval-leafed pondweed) weedkilling efficacy grade” value (oval-leafed pondweed [32]) was 5 (weed kill ratio 90% or more, (practically complete withering)), the “H (black-grass) weedkilling efficacy grade” value (black-grass [33]) was 5 (weed kill ratio 90% or more, (practically complete withering)) and the “E (green foxtail) weedkilling efficacy grade” value (green foxtail [34]) was 5 (weed kill ratio 90% or more, (practically complete withering)). The “L (redroot pigweed) weedkilling efficacy grade” value (redroot pigweed [35]) was 0 (weed kill ratio 5% or less (practically no effect)), the “F (barnyard grass) weedkilling efficacy grade” value (barnyard grass [36]) was 4 (weed kill ratio 70% or more, less than 90%) and the “N (chickweed) weedkilling efficacy grade” value (chickweed [37]) was 2 (weed kill ratio 20% or more, less than 40%). For the same compound, the “e (wheat) effect on crop grade” value (wheat [38]) was 0 (weed kill ratio 5% or less (practically no effect)), the “L (redroot pigweed) weedkilling efficacy grade” value (redroot pigweed [39]) was 0 (weed kill ratio 5% or less (practically no effect)) and the “b (directly sown rice) effect on crop grade” value (directly sown rice [40]) was 3 (weed kill ratio 40% or more, less than 70%). For the same compound, the “F (barnyard grass) weedkilling efficacy grade” value (barnyard grass [41]) was 1 (weed kill ratio 5% or more, less than 20%) and the “A (barnyard grass) weedkilling efficacy grade” value (barnyard grass [42]) was 5 (weed kill ratio 90% or more, (practically complete withering)).
